Assays:
Format in all cases: in vivo
mice with PC-3 tumor = assay: Glucose tolerance test in the PC-3 tumor model, chronic and acute CCcompound1
Protocol: The experimental PC-3 human tumors were developed in a homozygous line of C.B.-171 cr scid/scid adult female mice that were kept at specified pathogen free (SPF) hygienic level. Treatments with CCcompound1 (4.5 mg/kg) were started on day 12 after tumor implantation and conducted for 5+5 days with 2 treatment-free days inserted between the 2 series of treatments. A control group (10 mice) received no treatment, while another group (10 mice) received 4.5-mg/kg of CCcompound1 once every day between days 12-24. The results, shown in TABLE 8, indicate that between days 12 and 24 after tumor implantation, the prostate tumor caused about 6.9-g loss in lean body weight (4.1-g loss in total body weight). In contrast, animals treated with CCcompound1 actually gained 6.3-g lean body weight.
Tumors and cachexia are usually associated with insulin resistance. […] Both groups were starved for 14 hours and divided into two sub-groups; one subgroup remained untreated on day 25, another subgroup was administered 4.5-mg/kg of CCcompound1 60 min prior to administration of 3-g/kg of glucose. Blood samples were taken and blood glucose was analyzed as described earlier. […] In contrast, in animals that received chronic (C) treatment with CCcompound1 for 12 days, reduction in blood glucose level was clearly faster. Importantly, acute (A) treatment with CCcompound1 was almost as effective in cancer mice as in normal mice in reducing blood glucose level

C57/BL/6 mice [1] = assay: Glucose tolerance test with normal mice, PALP and CCcompound1 combined
Protocol: Female C57/BL/6 mice weighing 24-26-g and fasted for 12 hours before i.p. glucose administration (3 g/kg) were used. None of the animals received any food during the experiment other than glucose. One group of animals was untreated while animals in other groups received subcutaneous (s.c.) injections of 2.0 or 4.5-mg/kg of CCcompound1 either 30 min or 60 min prior to glucose administration as indicated in TABLE 5. Two groups of animals received i.p. injections of 0.4-mg per mouse (˜16-mg per kg) of highly purified PALP 24 hours prior to glucose administration. Purification of PALP was described in detail earlier [Z. Kiss, U.S. Pat. No. 7,048,914, “Placental Alkaline Phosphatase to Control Diabetes]. Animals in one of the PALP treated group also received s.c. injections of 4.5-mg/kg of CCcompound1 30 min prior to glucose administration as indicated in TABLE 5. Blood samples were taken and glucose concentrations were immediately measured as described earlier. Each group included five animals. The data are the mean±std. dev. of 5 determinations, i.e. one determination with each of the five animals. “-min” and “-h” indicates the length of period in minutes and hours, respectively, elapsed between the administration of test agents (first) and glucose (second).

ob/ob mice = assay: Glucose tolerance test with ob/ob mice
Protocol: In this experiment, 43 days old ob/ob mice weighing 40.3±1.8-g on average were used. One group of mice (5 animals) remained untreated for the subsequent 14 days. Two other groups of mice (each including 5 animals) were treated on each day for 13 days with 4.5-mg/kg dose of CCcompound1. On the 14th day the first group received only i.p. injection of glucose (3-g/kg) (first column in TABLE 13); the second group first received s.c. injection of CCcompound1, followed six hours later by i.p. injection of glucose (3-g/kg) (second column in TABLE 13); the third group first received s.c. injection of CCcompound1, followed 45 min later by i.p. injection of glucose (3-g/kg) (third column in TABLE 13). In each case, blood was first drawn 1-5 min prior to the administration of glucose, followed by drawing blood samples at 30 min, 60 min, 120 min and 180 min. The results shown in TABLE 13 indicate that CCcompound1 can effectively lower blood glucose level even after administration of a large amount of glucose. […] This probably means that the effect of CCcompound1 on blood glucose level requires its physical presence in the circulation and is not mediated by a secondary mechanism.

C57/BL/6 mice [2] = assay: Glucose tolerance test with normal mice, CCcompound1 and sub-optimal insulin; details: CCcompound1 4.5-mg/kg i.p. 60 min and/or insulin 0.02 IU 15 min prior to glucose
Protocol: In this experiment, a sub-optimal dose of insulin (0.02 international unit-IU) was used to probe if CCcompound1 indeed can enhance the effect of insulin on blood glucose. Again C57/BL/6 female mice weighing 22-23-g and fasted for 14 hours prior to i.p. glucose administration (3-g/kg), were used. None of the animals received any food during the experiment other than glucose. The animals received i.p. injections of 4.5-mg/kg of CCcompound1 and/or 0.02 Unit insulin 60 min and 15 min prior to glucose administration, respectively. Blood samples were taken and glucose concentrations measured as indicated earlier. Each group included six animals. The data are the mean±std. dev. of 6 determinations, i.e. one determination with each of the six animals.

## Cc1c(OCC(O)C[N+](C)(C)C)cc2c(=O)c3ccccc3sc2c1C.[Cl-] (stereo not drawn) [CCcompound 1, [3-(3,4-Dimethyl-9-oxo-9H-thioxanthen-2-yloxy)-2-hydroxypropyl]trimethyl-ammonium chloride]
Mice with PC-3 tumor; acute (A): 4.5-mg/kg 60 min prior to glucose on day 25, 0 min
  Blood glucose: 2.3 ± 0.2 mM
Mice with PC-3 tumor; acute (A), 30 min
  Blood glucose: 5.5 ± 0.6 mM
Mice with PC-3 tumor; acute (A), 60 min
  Blood glucose: 4.4 ± 0.7 mM
Mice with PC-3 tumor; acute (A), 120 min
  Blood glucose: 3.5 ± 0.4 mM
Mice with PC-3 tumor; chronic (C): 4.5-mg/kg daily days 12-24, 0 min
  Blood glucose: 1.8 ± 0.4 mM
Mice with PC-3 tumor; chronic (C), 30 min
  Blood glucose: 7.1 ± 0.5 mM
Mice with PC-3 tumor; chronic (C), 60 min
  Blood glucose: 6.5 ± 0.4 mM
Mice with PC-3 tumor; chronic (C), 120 min
  Blood glucose: 4.9 ± 0.6 mM
Mice with PC-3 tumor; chronic + acute (C + A), 0 min
  Blood glucose: 2.1 ± 0.5 mM
Mice with PC-3 tumor; chronic + acute (C + A), 30 min
  Blood glucose: 5.1 ± 0.4 mM
Mice with PC-3 tumor; chronic + acute (C + A), 60 min
  Blood glucose: 3.9 ± 0.4 mM
Mice with PC-3 tumor; chronic + acute (C + A), 120 min
  Blood glucose: 3.1 ± 0.3 mM
C57/BL/6 mice [1]; CC1 2 mg/kg s.c. −30 min, 0 min
  Blood glucose: 3.7 ± 0.4 mM
C57/BL/6 mice [1]; CC1 2 mg/kg s.c. −30 min, 30 min
  Blood glucose: 6.6 ± 0.4 mM
C57/BL/6 mice [1]; CC1 2 mg/kg s.c. −30 min, 60 min
  Blood glucose: 4.9 ± 0.6 mM
C57/BL/6 mice [1]; CC1 2 mg/kg s.c. −30 min, 120 min
  Blood glucose: 4.4 ± 0.5 mM
C57/BL/6 mice [1]; CC1 2 mg/kg s.c. −60 min, 0 min
  Blood glucose: 3.9 ± 0.6 mM
C57/BL/6 mice [1]; CC1 2 mg/kg s.c. −60 min, 30 min
  Blood glucose: 6.7 ± 0.5 mM
C57/BL/6 mice [1]; CC1 2 mg/kg s.c. −60 min, 60 min
  Blood glucose: 5.2 ± 0.3 mM
C57/BL/6 mice [1]; CC1 2 mg/kg s.c. −60 min, 120 min
  Blood glucose: 4.6 ± 0.3 mM
C57/BL/6 mice [1]; CC1 4.5 mg/kg s.c. −30 min, 0 min
  Blood glucose: 3.6 ± 0.4 mM
C57/BL/6 mice [1]; CC1 4.5 mg/kg s.c. −30 min, 30 min
  Blood glucose: 6.2 ± 0.4 mM
C57/BL/6 mice [1]; CC1 4.5 mg/kg s.c. −30 min, 60 min
  Blood glucose: 4.5 ± 0.3 mM
C57/BL/6 mice [1]; CC1 4.5 mg/kg s.c. −30 min, 120 min
  Blood glucose: 4.2 ± 0.4 mM
C57/BL/6 mice [1]; CC1 4.5 mg/kg s.c. −60 min, 0 min
  Blood glucose: 3.8 ± 0.5 mM
C57/BL/6 mice [1]; CC1 4.5 mg/kg s.c. −60 min, 30 min
  Blood glucose: 6.4 ± 0.3 mM
C57/BL/6 mice [1]; CC1 4.5 mg/kg s.c. −60 min, 60 min
  Blood glucose: 4.5 ± 0.5 mM
C57/BL/6 mice [1]; CC1 4.5 mg/kg s.c. −60 min, 120 min
  Blood glucose: 4.1 ± 0.6 mM
ob/ob mice; 4.5-mg/kg daily 13 days, day 14 s.c. 45 min prior to glucose 3-g/kg i.p., 0 min
  Blood glucose: 10.7 ± 0.2 mM
ob/ob mice; 4.5-mg/kg daily 13 days, day 14 s.c. 6 hours prior to glucose 3-g/kg i.p., 0 min
  Blood glucose: 17.8 ± 0.3 mM
ob/ob mice; s.c. 45 min prior to glucose, 30 min
  Blood glucose: 11.9 ± 0.4 mM
ob/ob mice; s.c. 45 min prior to glucose, 60 min
  Blood glucose: 11.4 ± 0.3 mM
ob/ob mice; s.c. 45 min prior to glucose, 120 min
  Blood glucose: 11.0 ± 0.3 mM
ob/ob mice; s.c. 45 min prior to glucose, 180 min
  Blood glucose: 10.9 ± 0.3 mM
ob/ob mice; s.c. 6 hours prior to glucose, 30 min
  Blood glucose: 20.7 ± 0.2 mM
ob/ob mice; s.c. 6 hours prior to glucose, 60 min
  Blood glucose: 20.2 ± 0.2 mM
ob/ob mice; s.c. 6 hours prior to glucose, 120 min
  Blood glucose: 19.6 ± 0.2 mM
ob/ob mice; s.c. 6 hours prior to glucose, 180 min
  Blood glucose: 18.9 ± 0.3 mM
C57/BL/6 mice [2]; 0 min
  Blood glucose: 1.8 ± 0.4 mM
C57/BL/6 mice [2]; 30 min
  Blood glucose: 5.1 ± 0.5 mM
C57/BL/6 mice [2]; 60 min
  Blood glucose: 4.1 ± 0.4 mM
C57/BL/6 mice [2]; 120 min
  Blood glucose: 3.3 ± 0.3 mM
